Assay results as given in patent publication US8604048B2, “Pyridocarbazole type compounds and applications thereof” (Centre National de la Recherche Scientifique, priority 2009, dated 2013).

How the values were obtained:
[1] = test system: MCF-7 cells; assay: Cell growth test (MTT), MCF-7; format: cell-based; conditions: Homo sapiens, MCF7; MCF-7, MTT test after 48 h; read-out: IC50 (concentration necessary to inhibit 50% of cell growth)
Protocol: (§1) The cell growth tests are carried out in transparent 96-well microplates (Greiner) after having seeded 100 μl/well of a cell solution having 2·10^5 cells/ml to 5·10^5 cells/ml (depending on the cell lines). After incubating for 24 h at 37° C. with 5% CO2, the culture medium is removed and replaced with solutions of the molecule to be tested at various concentrations. The cells are incubated with these molecules for an additional 48 h at 37° C. with 5% CO2. After elimination of the medium, the cells are washed with blank RPMI (Gibco, Invitrogen) then incubated with 3-(4,5-dimethylthiazol-2-yl)-2,5-diphenyltetrazolium bromide or MTT (0.5 mg/ml final concentration) for 4 h at 37° C. with 5% CO2. MTT (Sigma Aldrich) makes it possible to estimate the viability of the cells by measuring the activity of a mitochondrial enzyme. Indeed, in living cells, mitochondrial dehydrogenases are capable of cleaving the tetrazolium ring, thus leading to the formation of formazan crystals that are insoluble in an aqueous medium. These crystals are dissolved with the addition of a solubilizing solution (isopropanol, 10% Triton X100, 0.1 N HCl). After stirring, the absorbance is measured at 570 nm using the FLUOstar OPTIMA microplate reader. […]
(§2) The viability of the cells was evaluated using an MTT test after 48 h of exposure with various concentrations of molecules (from 100 μM to 0.001 μM). […]

[2] = test system: NCI-H460 cells; assay: Cell growth test (MTT), NCI-H460; format: cell-based; conditions: Homo sapiens; NCI-H460, MTT test after 48 h; read-out: IC50 (concentration necessary to inhibit 50% of cell growth)
Protocol: as §1, §2

[3] = test system: HeLa cells; assay: Cell growth test (MTT), HeLa; format: cell-based; conditions: Homo sapiens, MTT test after 48 h, read-out: IC50 (concentration necessary to inhibit 50% of cell growth)
Protocol: as §1, §2

[4] = test system: purified tubulin; assay: In vitro assembly of purified tubulin; format: biochemical; conditions: tubulin 1 mg/ml; Compound 1 at 25, 50, 100 μM
Protocol: FIG. 5 compares the effects of the Compound 1 of the invention with the effect of paclitaxel (Taxol®) on the assembly of the tubulin purified in vitro. Purified tubulin (1 mg/ml) is incubated in PEM buffer in the presence of GTP (1 mM), MgCl2 (5 mM), DAPI (10 μM) at 37° C. The effect of Compound 1 of the invention at various concentrations (×25 μM, ⊚ 50 μM and Δ 100 μM) is compared to that of paclitaxel (Taxol®) (▪) and of DMSO ( ? );
In order to know whether Compound 1 of the invention exerts its stabilizing effect via a direct action on tubulin, such as paclitaxel does, or by means an effector, its effect on the in vitro assembly of tubulin in microtubules has been analyzed. The first experiments were carried out on purified tubulin (1 mg/ml).

[5] = molecular target: T1, recombinant human LIMK1 (Homo sapiens, UniProt P53667); assay: Radiometric LIMK1 kinase assay; format: biochemical; conditions: Lineweaver-Burk plots
T1 construct: 6His (N); purchased Millipore 14-656
T1 sequence (P53667 whole entry): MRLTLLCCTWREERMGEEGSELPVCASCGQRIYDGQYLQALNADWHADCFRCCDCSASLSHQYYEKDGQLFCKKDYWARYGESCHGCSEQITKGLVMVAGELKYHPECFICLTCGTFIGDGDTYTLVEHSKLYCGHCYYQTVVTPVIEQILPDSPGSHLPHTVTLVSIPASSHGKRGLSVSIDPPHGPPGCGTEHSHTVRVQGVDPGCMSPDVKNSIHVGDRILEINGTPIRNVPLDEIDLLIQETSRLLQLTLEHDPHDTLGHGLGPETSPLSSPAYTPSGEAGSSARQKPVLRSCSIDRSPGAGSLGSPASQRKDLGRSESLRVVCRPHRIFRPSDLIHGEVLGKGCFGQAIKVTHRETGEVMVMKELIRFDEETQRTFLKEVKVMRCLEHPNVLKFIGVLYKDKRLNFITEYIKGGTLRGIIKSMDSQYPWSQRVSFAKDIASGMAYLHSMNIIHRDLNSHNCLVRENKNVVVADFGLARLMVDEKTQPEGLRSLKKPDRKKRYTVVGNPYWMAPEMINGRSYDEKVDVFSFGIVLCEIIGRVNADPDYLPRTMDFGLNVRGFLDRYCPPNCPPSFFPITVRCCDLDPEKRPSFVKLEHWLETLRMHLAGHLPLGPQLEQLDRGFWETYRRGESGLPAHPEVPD
Protocol: Compounds were tested in a radiometric LIMK1 assay performed in a final volume of 25 μl containing 3 μl of compound or equivalent amount of DMSO as control, 2 μl (1 ng) of N-terminal 6His-tagged recombinant human LIMK1 (Millipore #14-656, in 20 mM MOPS pH=7.0, 1 mM EDTA, 0.01% NP-40, 5% glycerol, 0.1% β-mercaptoethanol, 1 mg·ml^−1 Bovine Serum Albumin) and a mixture containing […] pH=7.0, 200 μM EDTA, 70 μM of recombinant GST-cofilin 1, 25 mM Mg(OAc)2, and 360 μM [γ-^32P]-ATP. Assays were performed at 30° C. for 10 minutes before termination by the addition of 5 μl of 3% orthophosphoric acid. 25 μL aliquots were then spotted onto P80 filter square (4 cm^2). Filters were rinsed three times for 5 minutes by 0.5% orthophosphoric acid at 4° C. and transferred to scintillation vial. Following addition of scintillation cocktail (Ultima Gold, Perkin-Elmer), ^32P incorporation was measured using a scintillation counter.
FIG. 10 illustrates the inhibition of LIMK1 by Compound 1 (H06). Radiometric LIMK1 kinase assay was performed as described in Example 2; the following conditions were tested: without LIMK1 (‘−LIMK1’), with LIMK1 (1 ng) in presence of 5 μM H06 (‘5 μM H06’), 25 μM H06 (‘25 μM H06’) or with equivalent amount of DMSO (‘Ctl’).
Error bars represent standard error mean. […]

[6] = test system: 786-O cells; assay: Cell growth test (MTT), 786-O; format: cell-based; conditions: Homo sapiens, 786-0, MTT test after 48 h, read-out: IC50 (concentration necessary to inhibit 50% of cell growth)
Protocol: as §1, §2

[7] = test system: mitochondria of HeLa cells; assay: Effect on location and morphology of the mitochondria (MitoTracker staining); format: cell-based, Human; conditions: 2 h of treatment at 25 μM
Protocol: As for tubulin staining, the cells are grown on glass coverslips and incubated at 37° C. with 5% CO2. Three days after seeding, MitoTracker® Red CMXRos (Molecular Probes, Invitrogen) is added to the culture medium in order to reach a final concentration of 250 nM. The cells are then incubated for 30 minutes at 37° C. with 5% CO2. This marker passively diffuses through the plasma membrane and accumulates into the active mitochondria. After elimination of the medium, the cells are washed with warm medium then fixed by addition of a solution of PBS/3.7% formaldehyde for 30 minutes at 37° C. The cells are rinsed with PBS, then can be permeabilized with a solution of PBS/0.2% Triton X100 for 15 minutes at room temperature if other immunofluorescence staining are needed.

Q: Which IC50 [1] does the source give for Cc1c2cc[nH]c(=O)c2c(C)c2c1[nH]c1ccc(OC(=O)c3ccccc3)cc12 [Compound 1, 9-benzoyloxy-5,11-dimethyl-2H,6H-pyrido[4,3-b]carbazol-1-one] here?
A: 62.2 µM

Q: What about the IC50 [2] of the same molecule?
A: 6.65 µM

Q: And the IC50 [3]?
A: 1.21 µM

Q: What about the “Assembly of purified tubulin in vitro” value [4] of the same molecule?
A: No assembly is observed

Q: And the “Inhibition mechanism on LIMK1” value ([5]; 70 nM and 280 nM compound)?
A: ATP competitor

Q: What about the Ki ([5]; ATP competition) of the same molecule?
A: ~0.06 µM

Q: What about the IC50 [6] of the same molecule?
A: 55.1 µM

Q: And the “Mitochondrial phenotype of sodium azide type” value [7]?
A: does not induce the mitochondrial phenotype
